The subject of the assay is male Wistar rats. Nature of the assay: Blood pressure in anesthetized rats after intravenous bolus administration. Format: in vivo. The following applies: tail vein bolus; for ED30: Rattus norvegicus, iv; for DBP % change: diastolic blood pressure relative to that before administration (=100%); for DBP % change / SBP % change: mean ± SE, n=4; for SBP % change: systolic blood pressure relative to that before administration (=100%). Here is the method:
The subject rats anesthetized with pentobarbital-Na (50 mg/kg, i.p.) were fixed at the dorsal position, and the blood pressure was successively recorded on a polygraph via polyethylene catheter inserted in left common carotid artery and piezoelectric transducer. The drug was bolus- administered at a dose of 1 ml/kg through a wing needle dwelled in tail vein.
As the subject animal, male Wistar rats (about 300 g body weight, 4 rats per group) were used.
The test drug was prepared by dissolving 10 mg thereof in 0.3 ml of ethanol and 0.1 ml of Tween 80 and diluting with saline.

Setting [1] is: estimated dose necessary for 30% reduction of diastolic blood pressure, read-out: DBP ED30.
Where [2] appears, read: estimated dose necessary for 30% reduction of systolic blood pressure, read-out: SBP ED30.

Where a name gives a salt, the structure may show the parent alone. Read-outs that look alike come from different tables or passages of the source.

As for `COC(=O)C1=C(C)NC(C)=C(C(=O)OCCc2ccc(N3CCN(C(c4ccccc4)c4ccccc4)CC3)cc2)C1c1cccc([N+](=O)[O-])c1` (racemic) [compound 3, reference compound], the ED30 by setting is: under setting [1], 0.046 mg/kg; under setting [2], 0.63 mg/kg. In addition, the DBP % change (dose 30 µg/kg) turned out to be 75±5%, the DBP % change (dose 100 µg/kg) amounted to 61±2% and the DBP % change (dose 300 µg/kg) was 53±3%. This compound also returned an SBP % change (dose 30 µg/kg) of 79±1%, an SBP % change (dose 100 µg/kg) of 76±4% and an SBP % change (dose 300 µg/kg) of 72±3%.

Regarding `COC(=O)C1=C(C)NC(C)=C(C(=O)OCCc2ccc(N3CCN(C(c4ccccc4)c4ccccc4)CC3)cc2)[C@@H]1c1cccc([N+](=O)[O-])c1` [(R)-(-)-compound 3, (R)-(-)-4-(4-benzhydrylpiperadino)phenetyl methyl 1,4-dihydro-2,6-dimethyl-4-(3-nitrophenyl)-3,5-pyridinedicarboxylate hydrochloride], the DBP % change amounted to 94±1% (dose 100 µg/kg) and 91±2% (dose 1000 µg/kg). Further, the SBP % change (dose 100 µg/kg) was determined as 93±2% and the SBP % change (dose 1000 µg/kg) stood at 93±3%.

Turning to `COC(=O)C1=C(C)NC(C)=C(C(=O)OCCc2ccc(N3CCN(C(c4ccccc4)c4ccccc4)CC3)cc2)[C@H]1c1cccc([N+](=O)[O-])c1` [(S)-(+)-compound 3, (S)-(+)-4-(4-benzhydrylpiperadino)phenetyl methyl 1,4-dihydro-2,6-dimethyl-4-(3-nitrophenyl)-3,5-pyridinedicarboxylate hydrochloride], the ED30 under setting [1] was 0.037 mg/kg and the ED30 under setting [2] was 0.16 mg/kg. The DBP % change is, setting by setting: (dose 10 µg/kg) 89±1%; (dose 30 µg/kg) 74±2%; (dose 100 µg/kg) 55±4%. The compound further came in with an SBP % change (dose 10 µg/kg) of 86±3%, an SBP % change (dose 30 µg/kg) of 86±3% and an SBP % change (dose 100 µg/kg) of 71±5%.

The record behind these values is patent publication EP0424901A1, “Dihydropyridine derivatives and pharmaceutical compositions” (THE GREEN CROSS CORPORATION, priority 1989, dated 1991).
